What all share (test): NCI-60 cell line screen, 48 h
For assay [1], the system named is OVCAR-4 ovarian.
Assay [2] concerns SK-OV-3 ovarian.
Assay [3] deals with TK-10 renal.
Assay [4] deals with MDA-MB-231 breast.
For assay [5], the system named is MDA-MB-435.
For assay [6], the system named is UACC-62 melanoma.
Assay [7] deals with NCI-H460 lung.
Assay [8] concerns DU-145 prostate.
The test system of assay [9] is MALME-3M melanoma.
The subject of assay [10] is HCC-2998 colon.

The results in this text go back to PubChem BioAssay (NCI).

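Protocol summary: plate cells (96-well), add compound at 5 concentrations, incubate 48 h, interpolate endpoints linearly. The concentration for 50% growth inhibition is given as GI50. At the TGI there is no net growth.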

As to `O=C(O)/C(Cc1ccnc2ccccc12)=N\O`, the TGI in [1], in assay [2], in assay [3], in [4], in [5] and in [6] was greater than 100 µM throughout. The TGI in assay [7], in assay [8] and in [9] was greater than 100 µM each time.

For `COc1cc(C2C3=C(COC3=O)N(CCO)c3cc4c(cc32)OCCO4)cc(OC)c1OC` (stereo not given), the GI50 in assay [1] was 0.416 µM; in assay [2], 0.224 µM; in [4] it was 0.185 µM; in assay [5], 0.103 µM; in [10] it was 0.127 µM; in assay [7], 0.208 µM. Besides, the GI50 in assay [8] was 0.345 µM; in [9] it was greater than 50 µM. The TGI in assay [1] was greater than 50 µM; in assay [2], greater than 14.5 µM; in assay [4], 2.72 µM; in assay [5] it was 0.256 µM; in assay [6], greater than 50 µM; in assay [10] it was 0.335 µM. Also, the TGI in assay [7] is 1.68 µM; in assay [8], 0.943 µM; in assay [9], greater than 50 µM.

`O=C1/C(=C/c2ccc(F)cc2)CN(C(=O)CCN2CCC(=NO)CC2)C/C1=C\c1ccc(F)cc1`: the GI50 in [1] is 2.34 µM; in assay [2], 5.22 µM; in assay [3], 2.21 µM; in [4], 1.37 µM; in [5] it was 0.827 µM; in assay [6], 0.84 µM. Besides, the GI50 in assay [10] was 1.5 µM; in assay [7] it was 2.02 µM; in [8] it was 2.26 µM; in assay [9] it was 1.86 µM. In addition, the TGI stood at 5.14 µM in assay [1]; 11.5 µM in assay [2]; 6.1 µM in assay [3]; 3.54 µM in assay [4]; 2.72 µM in assay [5]; 2.41 µM in assay [6]. For the same compound, the TGI in assay [10] came out at 3.08 µM; in assay [7] it was 5.17 µM; in assay [8] it was 5.17 µM; in assay [9], 4.89 µM.

Take `CS(=O)(=O)OCCCNCCCOS(C)(=O)=O`: the TGI in assay [1] turned out to be 5360 µM; in assay [2], 7470 µM; in assay [3] it was 6930 µM; in assay [4], 6120 µM; in assay [5], 8690 µM; in assay [6], 4260 µM. Moreover, the TGI in [10] was 3670 µM; in [7], 2450 µM; in assay [8], 6440 µM; in assay [9], 4890 µM.

For `CC(=O)N1CCN(CCNC(=O)n2cc(-c3ccncc3)c(-c3cc(O)cc(Cl)c3)n2)CC1`, the GI50 in assay [1] was 27.8 µM; in [2] it was 12.4 µM; in assay [3], 21.8 µM; in assay [4], 11.7 µM; in assay [5], 2.7 µM; in [6], 2.95 µM. For the same compound, the GI50 is 17.2 µM in assay [10], 10.1 µM in [7] and 24.3 µM in [8]. The TGI in [1] was greater than 100 µM; in assay [2], 25.4 µM; in [3], 50.1 µM; in assay [4], 26.7 µM; in [5], 15.7 µM; in [6], 16.2 µM. The TGI in assay [10] is 32.2 µM; in assay [7], 26.3 µM; in [8], greater than 100 µM.

With `O=C(NNc1ccc(Cl)cc1)C1CCC(CNS(=O)(=O)c2ccccc2Cl)CC1` (stereo not given), the GI50 in assay [3] was 0.453 µM; in [4], 4.63 µM; in [5], 4.77 µM; in assay [6], 2.81 µM; in assay [10], 1.48 µM; in assay [7], 14.3 µM. In assay [8], the GI50 is 31.6 µM. Also, the TGI in assay [3] was 6.68 µM; in assay [4] it was 29 µM; in assay [5] it was 24.1 µM; in assay [6], 9.64 µM; in assay [10], 13.8 µM; in assay [7], greater than 100 µM. For the same compound, the TGI in assay [8] is greater than 100 µM.

As for `CCN(CC)CCCC(C)Nc1cc(-c2cccc(OC(F)(F)F)c2)nc2ccc(N3CCCC3)cc12` (stereo not given), the GI50 is 0.483 µM in assay [1]; 0.0779 µM in [2]; 8.82 µM in assay [3]; 0.195 µM in assay [4]; 0.0223 µM in assay [5]; 0.0484 µM in assay [6]. For the same compound, the GI50 in assay [10] was 0.224 µM; in [7], 0.0377 µM; in assay [8], 0.0782 µM; in assay [9] it was 0.0679 µM. Besides, the TGI in [1] is greater than 100 µM; in assay [2], 98.7 µM; in assay [3], greater than 93.1 µM; in assay [4], 14.9 µM; in [5], 0.0519 µM; in assay [6], 20.9 µM. The TGI in assay [10] worked out at 2.98 µM; in assay [7] it was 3.66 µM; in [8] it was 13.6 µM; in [9], 32.6 µM.

In the case of `C1CN(c2nnc(N3CCC3)nn2)C1`, the TGI in assay [1] is greater than 64.6 µM; in assay [2] it was greater than 100 µM; in assay [3] it was greater than 100 µM; in [4] it was greater than 60.2 µM; in assay [5] it was 32.4 µM; in assay [6], 38.5 µM. Also, the TGI in [10] is greater than 100 µM; in [7], greater than 100 µM; in [8] it was greater than 100 µM; in assay [9] it was greater than 79.3 µM.

For `S=C1Cc2c(-c3ccc(Br)cc3)cc(-c3ccccc3)nc2-c2ccccc2N1`, the TGI in assay [1] is 1.43 µM; in [2], 3.27 µM; in assay [3], 3.75 µM; in [4], 3.72 µM; in assay [5], 20.6 µM; in assay [6] it was 5.45 µM. Also, the TGI stood at 11.3 µM in assay [10], 2.66 µM in assay [7], 10.3 µM in assay [8] and 7.41 µM in assay [9]. In addition, the GI50 in assay [3] was 1.79 µM.

In the case of `c1ccc(OCCC[P+](c2ccccc2)(c2ccccc2)c2ccccc2)cc1`, the GI50 in assay [1] is 0.486 µM; in assay [2] it was 4.11 µM; in [4], 2.33 µM; in assay [5] it was 0.481 µM; in assay [7], 2.79 µM; in assay [8], 3.19 µM. The TGI was 17.7 µM in assay [1]; 32.4 µM in assay [2]; 11.2 µM in assay [4]; 10.3 µM in assay [5]; 13.5 µM in assay [7]; 19.6 µM in [8].

Take `CN(C)CC1CC/C(=C\c2ccc3c(c2)OCO3)C1=O` (stereo not given): the TGI in assay [1] is 18.9 µM; in assay [2] it was greater than 57 µM; in assay [3], 25.1 µM; in assay [4], 4.25 µM; in assay [5], 4.43 µM; in assay [6] it was 30.4 µM. Besides, the TGI amounted to 50.7 µM in assay [10], 47.9 µM in assay [7], 19.7 µM in [8] and 18.3 µM in [9].

Consider `CSc1nc2nc3c(nc2c(=O)n1C)C(=O)c1ccccc1C3=O`, for which the GI50 in assay [2] was 0.774 µM; in assay [3] it was 0.766 µM; in [4], 0.256 µM; in [5] it was 0.0218 µM; in [6], 0.0467 µM; in [10], 0.275 µM. The GI50 is 0.101 µM in assay [7], 0.216 µM in assay [8] and 0.0406 µM in assay [9]. For the same compound, the TGI in [2] amounted to 2.04 µM; in assay [3], 2.1 µM; in assay [4], 0.974 µM; in [5] it was 0.0471 µM; in assay [6], 0.183 µM; in [10], 0.855 µM. For the same compound, the TGI in assay [7] was found to be 0.393 µM; in [8], 0.623 µM; in assay [9], 0.166 µM.

For the compound `CC(=O)OC12C=C(C)C(C(C)C1)C1C(=O)N(CCN3CCCCC3)C(=O)C12` (stereo not given), the GI50 in [1], in assay [2], in assay [3], in [4], in [5] and in assay [6] was greater than 50 µM each time. Also, the GI50 in [10], in [8] and in [9] was greater than 50 µM in each case. Besides, the TGI in assay [1], in [2], in assay [3], in [4], in assay [5] and in assay [6] was greater than 50 µM each time. The TGI in [10], in [8] and in assay [9] was greater than 50 µM each time.

On to `C#CC1=CC(=O)C(OC)=CC1=O`, for which the TGI in assay [2] is greater than 100 µM; in assay [3], greater than 100 µM; in assay [4] it was 34.8 µM; in assay [5], 34.8 µM; in assay [6], 29.2 µM; in [10], 81.5 µM. Also, the TGI in assay [7] is greater than 100 µM; in [8], 37.4 µM; in assay [9] it was 55.2 µM.

In the case of `COc1ccccc1S(=O)(=O)Nc1ccc2c3c(cc(CCC(=O)NCCCCNc4cccc5c4C(=O)N(C4CCC(=O)NC4=O)C5=O)cc13)C(=O)N2C` (stereo not given), the GI50 in assay [1] is 0.259 µM; in assay [2], 1.4 µM; in [3], greater than 29.9 µM; in assay [4], 0.0351 µM; in assay [5], 0.726 µM; in assay [6], 13.4 µM. The GI50 in [7] was greater than 100 µM; in [8], 5.68 µM; in assay [9], 0.0915 µM. The TGI was 1.44 µM in [1]; greater than 100 µM in assay [2]; greater than 100 µM in assay [3]; 0.295 µM in assay [4]; greater than 100 µM in assay [5]; greater than 100 µM in assay [6]. Besides, the TGI is greater than 100 µM in [7], greater than 100 µM in assay [8] and 0.559 µM in assay [9].

For `CCCCCCSSC(=S)N(CC)CC`, the GI50 in [1] is 15.1 µM; in [2], 28.6 µM; in assay [3], 25.8 µM; in assay [4], 17.5 µM; in assay [5] it was 22.1 µM; in assay [6] it was 17.2 µM. In addition, the GI50 in assay [10] was 29.7 µM; in assay [8], 28.7 µM; in assay [9], 23 µM. Moreover, the TGI in assay [1] was 28.8 µM; in assay [2], 71.1 µM; in [3], 56.7 µM; in assay [4], 39.2 µM; in [5], 57.9 µM; in [6], 36.9 µM. The TGI in [10] was 91.5 µM; in assay [8] it was 92.9 µM; in assay [9], 60.4 µM.

For the compound `CCCCCC(O)C(O)CCC[C@H](O)[C@H]1CC[C@H]([C@H]2CC[C@H]([C@H](O)CCCCCCCCCCCCC3=C[C@H](C)OC3=O)O2)O1` (stereo not given in full), the TGI was determined as 24.1 µM in assay [1]; 26.2 µM in assay [3]; 82.9 µM in [4]; 7.54 µM in [6]; 41.3 µM in assay [10]; 31.7 µM in [7]. The same compound gave a TGI in assay [9] of 29.8 µM. Moreover, the GI50 in assay [3] was 6.83 µM; in assay [4], 17.6 µM; in assay [5], 6.84 µM; in assay [7] it was 1.69 µM.

Consider `CNCCCNc1nc2ccccc2c2c(=O)c3cc(OC)ccc3sc12`, for which the GI50 was 1.96 µM in assay [1]; 1.73 µM in [3]; 1.52 µM in assay [4]; 1.8 µM in assay [5]; 1.76 µM in [6]; 1.82 µM in [10]. The GI50 is 1.67 µM in [7], 1.78 µM in assay [8] and 1.67 µM in [9]. The TGI in [1] is 4.03 µM; in assay [3], 3.39 µM; in assay [4] it was 2.98 µM; in assay [5] it was 3.24 µM; in assay [6] it was 3.27 µM; in assay [10], 3.49 µM. The TGI in [7] worked out at 3.13 µM; in assay [8], 3.23 µM; in assay [9] it was 3.15 µM.

In the case of `O=[N+]([O-])c1ccc(Cl)c(CNc2ncnc3c2ncn3C2CCCCO2)c1` (stereo not given), the TGI was greater than 100 µM in [1]; greater than 100 µM in assay [2]; greater than 100 µM in assay [3]; greater than 100 µM in assay [4]; 30.3 µM in [5]; greater than 100 µM in [6]. Further, the results for the TGI in assay [7], in [8] and in [9] were 52.2 µM, greater than 100 µM and greater than 100 µM, respectively.
